Results from patent US20110178072A1, “STEREOSPECIFICITY OF METHYLSULFINYL REDUCTION” (priority 2008, published 2011).

Tests used:
[1] = biological target: T1, yeast fRMsr (Saccharomyces cerevisiae, UniProt P36088); assay: Activity assay of purified recombinant yeast fRMsr towards free Met sulfoxides (HPLC, OPA derivatization); assay type: biochemical, S. cerevisiae; conditions: for Activity of recombinant yeast fRMsr protein towards the substrate: recombinant His-tagged yeast fRMsr; for Specific activity for each Met-O: yfRMsr (yeast free methionine R-sulfoxide reductase), ± standard deviations from 3 independent experiments
T1 construct: His-tag (C); made in house; host or cells: E. coli BL21 (DE3), pET21b
T1 sequence (P36088 1-180): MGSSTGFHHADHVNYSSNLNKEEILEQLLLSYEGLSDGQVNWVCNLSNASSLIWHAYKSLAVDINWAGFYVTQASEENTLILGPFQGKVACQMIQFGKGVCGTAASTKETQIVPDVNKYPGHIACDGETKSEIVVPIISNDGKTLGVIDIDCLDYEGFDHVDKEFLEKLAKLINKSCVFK
From the text: Cloning and expression of yeast fRMsr—Characterization of S. cerevisiae fRMsr (YKL069W) is described in Le, D. T., et al. (2009) Functional analysis of free methionine-R-sulfoxide reductase from Saccharomyces cerevisiae. J Biol Chem., 284(7), 4354-4364. Briefly, a yeast fRMsr cDNA, which encodes a protein homologous to fRMsr from E. coli, was amplified from S. cerevisiae genomic DNA and subcloned into pET21b vector (Novagen) using primers 5′-AAACATATGATGGGCTCATCAACCGGGTTTC-3′ (sense; SEQ ID NO:1) and 5′-AAGCGGCCGCGACACATGATTTATTAATTAATTTAGCAAG-3′ (antisense; SEQ ID NO:2). After transformation into BL21 (DE3) E. coli, the subcloned sequence was verified by DNA sequencing. Cells with the plasmid in 500 mL LB medium containing 100 μg/mL ampicillin were grown until OD600 reached 0.6-0.8, followed by addition of IPTG to 0.3 mM. Protein expression was at 30° C. for 4 hours, followed by harvesting cells by centrifugation at 4,000 rpm for 5 minutes. Cells were washed with PBS and stored at −70° C. until use.
To purify the protein, a cell pellet was dissolved in resuspension buffer (Tris-HCl, pH 7.5, 15 mM imidazole, 300 mM NaCl), and PMSF was added to a final concentration of 0.5 mM. After sonication, the supernatant was collected by centrifugation at 8,000 rpm for 30 minutes. The supernatant was loaded onto a cobalt Talon resin (Clontech) pre-equilibrated with resuspension buffer. Following washing with the same buffer, the protein was eluted with elution buffer (Tris-HCl, pH 7.5, 300 mM imidazole, 300 mM NaCl). Fractions containing yeast fRMsr were pooled together and dialyzed overnight against PBS in a dialysis cassette (Pierce).
(§1) Activity assays of fRMsr—Reaction mixture (40 μL) included 50 mM DTT, 1 mM substrate (Met-RO or Met-SO), and purified enzyme or cell lysate prepared by treatment with CelLytic™M cell lysis reagent (Sigma). 20 μL of the reaction mixture was mixed with 2 μL of TCA and subjected to OPA derivatization as described above and then injected onto the column to measure endogenous Met level in the samples. An additional 20 μL from the same original reaction mixture were incubated at 37° C. for 30 minutes and then subjected to OPA derivatization by the same procedure using TCA. After derivatization of the sample (2-5 μL) by adding OPA solution to 100 μL as a final volume, 50 μL of the mixture were subjected to an HPLC separation as described above.

[2] = test system: SK-Hep1 cell extracts; assay: Specific activity of SK-Hep1 cell extracts for reduction of free Met sulfoxides; assay type: biochemical, human; conditions: for Specific activity for each Met-O: SK-Hep1, ± standard deviations from 3 independent experiments
Description: HPLC analysis of media samples-Cells were plated in 6-well plates at 7.5×10^4 cells/well in 1.5 mL of regular DMEM medium. After 24 hours, cells were washed with PBS and the medium was changed to a modified DMEM containing Met, Met-SO, Met-RO, or Met-RSO (0.1 mM of each amino acid). 90 μL of medium from each well was collected at 0, 24, 48, 72, 96 hours and mixed with 10 μL of 100% TCA. After incubation at 4° C. for 10 minutes and centrifugation at 13,000 rpm for 15 minutes, the supernatant (50 μL) was diluted 10 times with distilled water and prepared for OPA derivatization. OPA derivatization of amino acids and HPLC analysis was performed as described (Sharov, V. S., Ferrington, D. A., Squier, T. C., […]. (1999) FEBS Lett. 455, 247-250) with minor modifications. The derivatization reagent was freshly prepared as a stock solution (40 mg of o-phthalaldehyde, 1 mL of methanol, 50 μL, of 2-mercaptoehanol, 5 mL of 0.1 M Na2B4O7, pH 9.5) at room temperature in a capped amber vial. Sample solutions (2-5 μL) were mixed with the OPA derivatization reagent to 100 μL, final volume. Following a 2 minute reaction at room temperature, the mixture was fractionated on a Zorbax Eclipse XDB-C8 column (4.6×150 mm). Changes in Met levels in the fRMsr activity assay were similarly quantified. […] Activity assays of fRMsr-Reaction mixture (40 μL) included 50 mM DTT, 1 mM substrate (Met-RO or Met-SO), and purified enzyme or cell lysate prepared by treatment with […] cell lysis reagent (Sigma). 20 μL of the reaction mixture was mixed with 2 μL of TCA and subjected to OPA derivatization as described above and then injected onto the column to measure endogenous Met level in the samples. An additional 20 μL from the same original reaction mixture were incubated at 37° C. for 30 minutes and then subjected to OPA derivatization by the same procedure using TCA. After derivatization of the sample (2-5 μL) by adding OPA solution to 100 μL as a final volume, 50 μL of the mixture were subjected to an HPLC separation as described above.

[3] = test system: yfRMsr transfected SK-Hep1; assay: Specific activity of yfRMsr transfected SK-Hep1 cells towards free Met sulfoxides; assay type: biochemical, human; conditions: for Specific activity of fRMsr-transfected cells: fRMsr-transfected SK-Hep1 cells; for Specific activity for each Met-O: yfRMsr transfected SK-Hep1, ± standard deviations from 3 independent experiments
Description: Transfection of yeast fRMsr gene into SK-Hep1 cells—A 6 His-tag sequence was cloned at the C-terminus of yeast fRMsr, the sequence was inserted into a mammalian expression vector, pCI-neo (Promega), and the resulting construct was verified by DNA sequencing. […] To establish a stable cell line, cells were selected in the presence of 800 μg/mL G418 sulfate (Promega), and further maintained in the presence of 400 μg/mL G418 sulfate. Expression of recombinant fRMsr was verified by western blotting using anti-His-tag antibodies and Msr activities were assayed by an HPLC method using OPA derivatization.
as §1

Activity of recombinant yeast fRMsr protein towards the substrate [1]	Structure (SMILES)	Specific activity for each Met-O [1]	Specific activity for each Met-O [2]	Specific activity of SK-Hep1 cell extracts for reduction of free Met sulfoxide [2]	Specific activity of fRMsr-transfected cells [3]	Specific activity for each Met-O [3] [pmol/min/mg]
≈ 33 nmol/min/mg protein	C[S@@+]([O-])CC[C@H](N)C(=O)O [Met-RO, methionine-R-sulfoxide]	30015 ± 2652 pmol/min/mg	ND* (A signal corresponding to specific activity less than 5 pmol/min/mg is shown as ND (Not Detectable))	No free Met-RO reductase activity was detected	≈ 46.4 pmol/min/mg protein	46.4 ± 5.0
inactive	C[S@+]([O-])CC[C@H](N)C(=O)O [Met-SO, methionine-S-sulfoxide]	ND* (A signal corresponding to specific activity less than 5 pmol/min/mg is shown as ND (Not Detectable))	38.6 ± 3.6 pmol/min/mg	≈ 38.6 pmol/min/mg protein	≈ 42.7 pmol/min/mg protein	42.7 ± 5.9
